PubChem BioAssay (NCI)
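Values below derive from 48-hour exposures of cells grown in 96-well plates, with endpoints linearly interpolated between the two concentrations bracketing the appropriate inhibition level. At the GI50, growth is halved. Definition used: TGI = concentration required for complete inhibition of growth.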

What was measured:
Test in all cases: inhibition of tumour cell growth, NCI panel, 48 h; in the data active means GI50 below about 0.43 µM; inactive means the rest
NCI-H460 lung = system: NCI-H460 lung
K-562 leukemia = system: K-562 leukemia
HCT-15 colon = system: HCT-15 colon
HT29 colon = system: HT29 colon
A549 NSCLC = system: A549 NSCLC
PC-3 prostate = system: PC-3 prostate
OVCAR-3 ovarian = system: OVCAR-3 ovarian
OVCAR-4 ovarian = system: OVCAR-4 ovarian
T-47D breast = system: T-47D breast
EKVX NSCLC = system: EKVX NSCLC
MDA-MB-468 breast = system: MDA-MB-468 breast
SF-539 CNS = system: SF-539 CNS
HS 578T breast = system: HS 578T breast
MDA-MB-231 breast = system: MDA-MB-231 breast
CAKI-1 renal = system: CAKI-1 renal
COLO 205 colon = system: COLO 205 colon
LOX IMVI melanoma = system: LOX IMVI melanoma
HCT-116 colon = system: HCT-116 colon
OVCAR-8 ovarian = system: OVCAR-8 ovarian
SF-295 CNS = system: SF-295 CNS
MALME-3M melanoma = system: MALME-3M melanoma
KM12 colon = system: KM12 colon
SF-268 CNS = system: SF-268 CNS
SK-OV-3 ovarian = system: SK-OV-3 ovarian
RPMI-8226 leukemia = system: RPMI-8226 leukemia
DU-145 prostate = system: DU-145 prostate
BT-549 breast = system: BT-549 breast
HOP-62 NSCLC = system: HOP-62 NSCLC
OVCAR-5 ovarian = system: OVCAR-5 ovarian
SNB-75 CNS = system: SNB-75 CNS
M14 melanoma = system: M14 melanoma
TK-10 renal = system: TK-10 renal
SR leukemia = system: SR leukemia
UACC-257 melanoma = system: UACC-257 melanoma
SK-MEL-5 melanoma = system: SK-MEL-5 melanoma
HOP-92 NSCLC = system: HOP-92 NSCLC
ACHN renal = system: ACHN renal
CCRF-CEM leukemia = system: CCRF-CEM leukemia
NCI-H522 lung = system: NCI-H522 lung
SK-MEL-28 melanoma = system: SK-MEL-28 melanoma
NCI/ADR-RES ovarian = system: NCI/ADR-RES ovarian
SNB-19 CNS = system: SNB-19 CNS
MDA-MB-435 = system: MDA-MB-435
UACC-62 melanoma = system: UACC-62 melanoma
HL-60(TB) leukemia = system: HL-60(TB) leukemia
NCI-H226 lung = system: NCI-H226 lung
UO-31 renal = system: UO-31 renal
NCI-H23 lung = system: NCI-H23 lung
786-0 renal = system: 786-0 renal
MCF7 breast = system: MCF7 breast
A498 renal = system: A498 renal
MOLT-4 leukemia = system: MOLT-4 leukemia
SK-MEL-2 melanoma = system: SK-MEL-2 melanoma
U251 CNS = system: U251 CNS
RXF 393 renal = system: RXF 393 renal
IGROV1 ovarian = system: IGROV1 ovarian
SN12C renal = system: SN12C renal

CCOc1ccc(/C=N/NC(=O)Cn2nc(Cc3ccc([N+](=O)[O-])cc3)c3onc(C)c3c2=O)cc1
44.9 µM: TGI (MALME-3M melanoma)
35.1 µM: TGI (NCI-H23 lung)
8.23 µM: TGI (HS 578T breast) | TGI (HOP-92 NSCLC)
7.06 µM: TGI (U251 CNS)
11 µM: TGI (ACHN renal)
6.99 µM: TGI (HOP-62 NSCLC) | TGI (NCI-H226 lung)
36.9 µM: TGI (SK-MEL-2 melanoma)
> 100 µM: TGI (NCI-H460 lung) | TGI (K-562 leukemia) | TGI (HCT-15 colon) | TGI (HT29 colon) | TGI (A549 NSCLC) | TGI (PC-3 prostate) | TGI (OVCAR-3 ovarian) | TGI (OVCAR-4 ovarian) | TGI (T-47D breast) | TGI (EKVX NSCLC) | TGI (COLO 205 colon) | TGI (LOX IMVI melanoma) | TGI (HCT-116 colon) | TGI (OVCAR-8 ovarian) | TGI (KM12 colon) | TGI (RPMI-8226 leukemia) | TGI (DU-145 prostate) | TGI (BT-549 breast) | TGI (OVCAR-5 ovarian) | TGI (M14 melanoma) | TGI (SR leukemia) | TGI (UACC-257 melanoma) | TGI (SK-MEL-5 melanoma) | TGI (CCRF-CEM leukemia) | TGI (SK-MEL-28 melanoma) | TGI (NCI/ADR-RES ovarian) | TGI (MDA-MB-435) | TGI (HL-60(TB) leukemia) | TGI (UO-31 renal) | TGI (MCF7 breast) | TGI (MOLT-4 leukemia) | TGI (IGROV1 ovarian) | TGI (SN12C renal)
20 µM: TGI (MDA-MB-468 breast)
32.5 µM: TGI (NCI-H522 lung)
14.1 µM: TGI (SNB-19 CNS)
93.9 µM: TGI (UACC-62 melanoma)
6.64 µM: TGI (786-0 renal)
27.2 µM: TGI (SK-OV-3 ovarian)
68.5 µM: TGI (SF-268 CNS)
10.1 µM: TGI (SF-539 CNS)
12.3 µM: TGI (CAKI-1 renal)
21 µM: TGI (A498 renal)
10.8 µM: TGI (SF-295 CNS)
6.44 µM: TGI (MDA-MB-231 breast)
7.35 µM: TGI (RXF 393 renal)
6.62 µM: TGI (TK-10 renal)
inactive: GI50 (NCI-H460 lung) 4.37 µM | GI50 (K-562 leukemia) > 100 µM | GI50 (HCT-15 colon) > 100 µM | GI50 (HT29 colon) > 100 µM | GI50 (A549 NSCLC) 4.19 µM | GI50 (PC-3 prostate) 6.35 µM | GI50 (OVCAR-3 ovarian) 9.59 µM | GI50 (OVCAR-4 ovarian) 3.26 µM | GI50 (T-47D breast) 2570 nM | GI50 (EKVX NSCLC) > 100 µM | GI50 (MDA-MB-468 breast) 3.35 µM | GI50 (SF-539 CNS) 3.1 µM | GI50 (HS 578T breast) 2840 nM | GI50 (MDA-MB-231 breast) 2300 nM | GI50 (CAKI-1 renal) 3.08 µM | GI50 (COLO 205 colon) > 100 µM | GI50 (LOX IMVI melanoma) 5.34 µM | GI50 (HCT-116 colon) 3.21 µM | GI50 (OVCAR-8 ovarian) 10.1 µM | GI50 (SF-295 CNS) 3.26 µM | GI50 (MALME-3M melanoma) 6.71 µM | GI50 (KM12 colon) > 100 µM | GI50 (SF-268 CNS) 5.75 µM | GI50 (SK-OV-3 ovarian) 8.24 µM | GI50 (RPMI-8226 leukemia) > 100 µM | GI50 (DU-145 prostate) 11.2 µM | GI50 (BT-549 breast) 20.3 µM | GI50 (HOP-62 NSCLC) 2550 nM | GI50 (OVCAR-5 ovarian) > 100 µM | GI50 (SNB-75 CNS) 1600 nM | GI50 (M14 melanoma) 28.2 µM | GI50 (TK-10 renal) 2410 nM | GI50 (SR leukemia) > 100 µM | GI50 (UACC-257 melanoma) 69.9 µM | GI50 (SK-MEL-5 melanoma) 6.85 µM | GI50 (HOP-92 NSCLC) 2410 nM | GI50 (ACHN renal) 3.33 µM | GI50 (CCRF-CEM leukemia) > 100 µM | GI50 (NCI-H522 lung) 3.26 µM | GI50 (SK-MEL-28 melanoma) 6.14 µM | GI50 (NCI/ADR-RES ovarian) 6.53 µM | GI50 (SNB-19 CNS) 3.41 µM | GI50 (MDA-MB-435) > 100 µM | GI50 (UACC-62 melanoma) 12.9 µM | GI50 (HL-60(TB) leukemia) > 100 µM | GI50 (NCI-H226 lung) 2430 nM | GI50 (UO-31 renal) 3.45 µM | GI50 (NCI-H23 lung) 7.06 µM | GI50 (786-0 renal) 2470 nM | GI50 (MCF7 breast) > 100 µM | GI50 (A498 renal) 4.88 µM | GI50 (MOLT-4 leukemia) > 100 µM | GI50 (SK-MEL-2 melanoma) 13.8 µM | GI50 (U251 CNS) 2300 nM | GI50 (RXF 393 renal) 2570 nM | GI50 (IGROV1 ovarian) 27.6 µM | GI50 (SN12C renal) > 100 µM
7.67 µM: TGI (SNB-75 CNS)
